Experiments:
[1] = test system: SW620 cells (KRAS G12V); assay: Cell-based pERK HTRF assay in SW620 cell (Biological Example 4); conditions: pERK HTRF
Outline: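 This assay measures inhibition of ERK phosphorylation downstream of KRAS G12V in intact SW620 cells. Compounds are applied for 4 h over nine half-log concentrations starting at 1 μM, and pERK is quantified by HTRF.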

[2] = molecular target: T1, Avi-KRAS G12R (1-169) GppNHp/RAF1 RBD-3xFLAG (52-151) (Homo sapiens, UniProt P01116, G12R); assay: Raf1-KRAS G12R-GppNHP disruption HTRF assay (Biological Example 1); assay type: binding
T1 construct: Avi-KRAS G12R (1-169)
Outline: (§1)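 First, protein mix in Tris pH 7.5 buffer with NaCl, MgCl2, BSA, Tween and 10% DMSO is incubated 1 h at room temperature. Next, reagent mix is added and incubated a further 1 h at room temperature. Finally, HTRF is read and activity normalized to DMSO.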

[3] = test system: GP2d cells (KRAS G12D); assay: Cell-based pERK HTRF assay in GP2d cell (Biological Example 2); conditions: GP2d (KRAS G12D) cells, pERK HTRF
Outline: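 HTRF read-out of pERK (excitation 320 nm, emission 615 nm) after lysates sat 4–24 h at room temperature with Eu cryptate and d2 antibodies.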

[4] = molecular target: T2, Avi-KRAS WT (1-169) GppNHp/RAF1 RBD-3xFLAG (52-151) (Homo sapiens, UniProt P01116); assay: Raf1-KRAS WT-GppNHP disruption HTRF assay (Biological Example 1); assay type: binding
T2 construct: Avi-KRAS WT (1-169)
Outline: as §1

[5] = molecular target: T3, Avi-KRAS G12V (1-169) GppNHp/RAF1 RBD-3xFLAG (52-151) (Homo sapiens, UniProt P01116, G12V); assay: Raf1-KRAS G12V-GppNHP disruption HTRF assay (Biological Example 1); assay type: binding
T3 construct: Avi-KRAS G12V (1-169)
Outline: as §1

[6] = molecular target: T4, Avi-KRAS G12D (1-169) GppNHp/RAF1 RBD-3xFLAG (52-151) (Homo sapiens, UniProt P01116, G12D); assay: Raf1-KRAS G12D-GppNHP disruption HTRF assay (Biological Example 1); assay type: binding
T4 construct: Avi-KRAS G12D (1-169)
Outline: as §1

[7] = Homo sapiens, SW-620, SW620 (KRAS G12V) cells
[8] = KRAS G12R, GppNHp-loaded, Table 11
[9] = KRAS WT, GppNHp-loaded, Table 11
[10] = KRAS G12V, GppNHp-loaded, Table 11
[11] = KRAS G12D, GppNHp-loaded, Table 11
[12] = Homo sapiens, SW-620, SW620 (KRAS G12V) cells, class symbols
[13] = KRAS G12R, GppNHp-loaded, class symbols
[14] = KRAS WT, GppNHp-loaded, class symbols
[15] = KRAS G12V, GppNHp-loaded, class symbols
[16] = KRAS G12D, GppNHp-loaded, class symbols

T3 sequence (P01116 1-169 isoform P01116-2 G12V): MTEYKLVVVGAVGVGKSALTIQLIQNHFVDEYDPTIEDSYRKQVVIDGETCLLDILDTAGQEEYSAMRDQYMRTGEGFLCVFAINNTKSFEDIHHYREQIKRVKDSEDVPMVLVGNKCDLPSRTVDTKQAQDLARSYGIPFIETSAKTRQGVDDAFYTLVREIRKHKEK
T2 sequence (P01116 1-169 isoform P01116-2): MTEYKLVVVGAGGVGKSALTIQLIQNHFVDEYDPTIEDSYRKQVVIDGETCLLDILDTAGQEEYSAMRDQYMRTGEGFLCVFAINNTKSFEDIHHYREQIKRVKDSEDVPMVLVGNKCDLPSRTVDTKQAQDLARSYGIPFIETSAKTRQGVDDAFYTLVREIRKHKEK
T1 sequence (P01116 1-169 isoform P01116-2 G12R): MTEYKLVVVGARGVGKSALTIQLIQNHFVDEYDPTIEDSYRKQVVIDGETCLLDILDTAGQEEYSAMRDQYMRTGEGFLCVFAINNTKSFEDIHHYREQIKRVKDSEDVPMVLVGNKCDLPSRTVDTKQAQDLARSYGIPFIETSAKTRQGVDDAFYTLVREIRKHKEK
T4 sequence (P01116 1-169 isoform P01116-2 G12D): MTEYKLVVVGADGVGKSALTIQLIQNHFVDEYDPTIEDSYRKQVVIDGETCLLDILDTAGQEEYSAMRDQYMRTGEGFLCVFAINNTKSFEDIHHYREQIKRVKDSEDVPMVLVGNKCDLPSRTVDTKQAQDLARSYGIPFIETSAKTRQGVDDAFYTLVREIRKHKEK

| IC50 [1, 7] [µM] | IC50 ([2]; KRAS G12R-GppNHp/RAF1 RBD HTRF) [µM] | IC50 ([3]; GP2d) [µM] | IC50 ([4]; KRAS WT-GppNHp/RAF1 RBD HTRF) [µM] | IC50 ([5]; KRAS G12V-GppNHp/RAF1 RBD HTRF) [µM] | IC50 ([6]; KRAS G12D-GppNHp/RAF1 RBD HTRF) [µM] | SMILES | further results |
| --- | --- | --- | --- | --- | --- | --- | --- |
| < 0.1 | < 0.1 | < 0.1 | 0.1 to 1 | 0.1 to 1 | < 0.1 | CCC(=O)N1CC[C@H](N(CC)c2nc(OC[C@@]34CCCN3C[C@H](F)C4)nc3c(F)c(-c4ccc(F)c5sc(N)c(C#N)c45)c(C(F)(F)F)cc23)C1 [Compound 349] |  |
| < 0.1 | 1 to 10 | < 0.1 | 1 to 10 | 1 to 10 | 1 to 10 | CC(=O)N1CCC2[C@H]1CCN2c1nc(OC[C@@]23CCCN2C[C@H](F)C3)nc2c(F)c(-c3ccc(F)c4sc(N)c(C#N)c34)c(C(F)(F)F)cc12 (stereo partly drawn) [Compound 307] |  |
| < 0.1 | 0.1 to 1 | < 0.1 | 0.1 to 1 | 0.1 to 1 | 0.1 to 1 | CC(=O)N1C[C@@H](N(C)c2nc(OC[C@@]34CCCN3C[C@H](F)C4)nc3c(F)c(-c4ccc(F)c5sc(N)c(C#N)c45)c(C(F)(F)F)cc23)C[C@@H]1CF [Compound 454] |  |
| < 0.1 |  | < 0.1 |  |  |  | C[C@H]1CCN1c1nc(OC[C@@]23CCCN2C[C@H](F)C3)nc2c(F)c(-c3ccc(F)c4sc(N)c(C#N)c34)c(C(F)(F)F)cc12 [Compound 235] | IC50 [2, 8]: 0.1 to 1 µM; IC50 [4, 9]: 0.1 to 1 µM; IC50 [5, 10]: 0.1 to 1 µM; IC50 [6, 11]: 0.1 to 1 µM |
|  |  |  |  |  |  | CC(C)C(=O)N1CC[C@H](N(C)c2nc(OC[C@@]34CCCN3C[C@H](F)C4)nc3c(F)c(-c4ccc(F)c5sc(N)c(C#N)c45)c(C(F)(F)F)cc23)C1 (atropisomer, axis not shown) [Compound 786] | IC50 [1, 12]: < 0.1 µM; IC50 [2, 13]: < 0.1 µM; IC50 ([3]; GP2d, class symbols): < 0.1 µM; IC50 [4, 14]: 0.1 to 1 µM; IC50 [5, 15]: 0.1 to 1 µM; IC50 [6, 16]: < 0.1 µM |
| < 0.1 | > 10 | < 0.1 | < 0.1 | 1 to 10 | 1 to 10 | CN(C)C(=O)c1nc2c(s1)CN(c1nc(OCC34CCCN3CC(F)C4)nc3c(F)c(-c4ccc(F)c5sc(N)c(C#N)c45)c(C(F)(F)F)cc13)CC2 (stereo not drawn) [Compound 404] |  |
| 0.1 to 1 | 0.1 to 1 | < 0.1 | 1 to 10 | 1 to 10 | 0.1 to 1 | Cc1nc(OC[C@@]23CCCN2C[C@H](F)C3)nc2c(F)c(-c3ccc(F)c4sc(N)c(C#N)c34)c(C(F)(F)F)cc12 [Compound 318, 2-amino-7-fluoro-4-[8-fluoro-2-[[(2R,8S)-2-fluoro-1,2,3,5,6,7-hexahydropyrrolizin-8-yl]methoxy]-4-methyl-6-(trifluoromethyl)quinazolin-7-yl]benzothiophene-3-carbonitrile] |  |
| 0.1 to 1 | > 10 | < 0.1 | 0.1 to 1 | 1 to 10 | 1 to 10 | C[C@H]1N(C(=O)C2CC2)CC[C@@]1(C)N(C)c1nc(OC[C@@]23CCCN2C[C@H](F)C3)nc2c(F)c(-c3ccc(F)c4sc(N)c(C#N)c34)c(C(F)(F)F)cc12 [Compound 344] |  |
|  |  |  |  |  |  | CC(=O)N1CC[C@H](N(C)c2nc(OC[C@@]34CCCN3C[C@H](F)C4)nc3c(F)c(-c4ccc(F)c5sc(N)c(C#N)c45)c(C(F)(F)F)cc23)[C@@H]1C (single isomer, unassigned) [Compound 195] | IC50 ([1]; SW620 (KRAS G12V) cells): 0.1 to 1 µM; IC50 [2, 8]: 1 to 10 µM; IC50 [3]: 0.1 to 1 µM; IC50 [4, 9]: 1 to 10 µM; IC50 [5, 10]: 1 to 10 µM; IC50 [6, 11]: 1 to 10 µM |
|  |  |  |  |  |  | CCN(c1nc(OC[C@@]23CCCN2C[C@H](F)C3)nc2c(F)c(-c3ccc(F)c4sc(N)c(C#N)c34)c(C(F)(F)F)cc12)[C@H]1CCN(C(=O)[C@@H]2C[C@H]2F)C1 (atropisomer, axis not shown) [Compound 768] | IC50 [1, 12]: < 0.1 µM; IC50 [2, 13]: < 0.1 µM; IC50 ([3]; GP2d, class symbols): < 0.1 µM; IC50 [4, 14]: < 0.1 µM; IC50 [5, 15]: < 0.1 µM; IC50 [6, 16]: < 0.1 µM |

— US20260042764A1, “COMPOSITIONS AND METHODS FOR INHIBITION OF KRAS” (TheRas, Inc., priority 2022, published 2026)
